In article PMC11396803, “Synthesis of Tumor Selective Indole and 8-Hydroxyquinoline Skeleton Containing Di-, or Triarylmethanes with Improved Cytotoxic Activity” (Molecules, 2024):
Like-named read-outs stand apart in the source and are kept apart here.

What was measured:
Format in all cases: cell-based, human
[1] = test system: MRC-5 embryonic lung fibroblast cell line; experiment: MTT cytotoxicity assay on normal MRC-5 fibroblasts; details: for IC50: Homo sapiens; for Cytotoxic effect on normal MRC-5 cells (in words): up to 100 µM
Description: (§1) The doxorubicin-sensitive Colo205 (ATCC-CCL-222) and the doxorubicin-resistant ABCB1- and LRP-expressing Colo320/MDR-LRP (ATCC-CCL-220.1) human colon adenocarcinoma cell lines were obtained from LGC Promochem in Teddington, UK. These cell lines were cultivated in RPMI 1640 medium supplemented with 10% heat-inactivated foetal bovine serum (FBS), 2 mM L-glutamine, 1 mM Na-pyruvate, 10 mM HEPES, along with nystatin, and gentamicin. The normal MRC-5 (ATCC CCL-171) human embryonic lung fibroblast cell line was purchased from Sigma-Aldrich (Merck KGaA, Darmstadt, Germany). The MRC-5 cells were cultured in EMEM medium, supplemented with 1% non-essential amino acid (NEAA) mixture, a selection of vitamins, 10% heat-inactivated FBS, 2 mM L-glutamine, 1 mM Na pyruvate, nystatin, and gentamicin. The cell lines were incubated in humidified atmosphere (5% CO2, 95% air) at 37 °C. The cells were detached with a Trypsin-Versene (EDTA) solution for 5 min at 37 °C.
(§2) The effects of increasing concentrations of the compounds on cell growth were tested in 96-well flat-bottomed microtiter plates. Namely, 1 × 10^4 of human colonic adenocarcinoma cells in 100 μL of the medium (RPMI 1640) were added to each well, except for the medium control wells. The adherent human embryonic lung fibroblast cell line was seeded in the EMEM medium for 24 h before the assay. The two-fold serial dilutions of the compounds were made in a separate plate (100–0.19 μM) and then transferred to the plates containing the cells. The starting concentration of the solvent DMSO was 2% v/v, and the highest concentration of the compounds in the plate was 100 μM. Plates were incubated at 37 °C for 24 h. At the end of the incubation, 20 μL of MTT (thiazolyl blue tetrazolium bromide) solution (from a 5 mg/mL stock solution) was added to each well. After incubation at 37 °C for 4 h, 100 μL of sodium dodecyl sulfate (SDS) solution (10% SDS in 0.01 M HCl) was added to each well, and the plates were further incubated at 37 °C overnight. Cell growth was determined by measuring the optical density (OD) at 540 nm (ref. 630 nm) with a Multiscan EX ELISA reader (Thermo Labsystems, Cheshire, WA, USA). Inhibition of cell growth was expressed as IC50 values, defined as the inhibitory dose that reduces the growth of the cells exposed to the tested compounds by 50%. IC50 values and the SD of triplicate and duplicate (in the case of MRC-5) experiments were calculated by using GraphPad Prism software version 5.00 for Windows, with a non-linear regression curve fit (GraphPad Software, San Diego, CA, USA; www.graphpad.com, accessed on 12 July 2021). Doxorubicin (from a 2 mg/mL stock solution, Teva Pharmaceuticals) was used as a positive control. […] The relative resistance (RR) was calculated as the ratio of the IC50 value in the resistant cancer cells and the IC50 value in the sensitive cancer cell lines. The selectivity indexes (SI) were calculated as the ratio of the IC50 value in the non-tumor cells and the IC50 value in the cancer cell lines. The activity of the compounds towards cancer cells is considered to be strongly selective if the selectivity index (SI) value is higher than 6, moderately selective if 3 < SI < 6, slightly selective if 1 < SI < 3, and non-selective if the SI is lower than 1 [22].

[2] = test system: Colo320/MDR-LRP colon adenocarcinoma cell line; experiment: MTT cytotoxicity assay on doxorubicin-resistant, ABCB1- and LRP-expressing Colo320 cells; details: for IC50: Homo sapiens, COLO 320; for IC50 / Cytotoxic effect on Colo320 cells (in words): MTT; for Cytotoxic effect on Colo320 cells (in words): up to 100 µM; for Selectivity index SI MRC-5/Colo320: ratio of IC50 in non-tumor MRC-5 cells and IC50 in Colo320
Description: as §1, §2

[3] = test system: Colo205 colon adenocarcinoma cell line; experiment: MTT cytotoxicity assay on doxorubicin-sensitive Colo205 cells; details: for IC50: Homo sapiens, COLO 205; for IC50 / Cytotoxic effect on Colo205 cells (in words): MTT; for Cytotoxic effect on Colo205 cells (in words): up to 100 µM; for Selectivity index SI MRC-5/Colo205: ratio of IC50 in non-tumor MRC-5 cells and IC50 in Colo205
Description: as §1, §2

[4] = MRC5, 24 h incubation, average of 2 parallel experiments, read-out: IC50 MRC-5 AV ± SD
[5] = 24 h incubation, average of 3 parallel experiments, read-out: IC50 Colo320 AV ± SD
[6] = 24 h incubation, average of 3 parallel experiments, read-out: IC50 Colo205 AV ± SD
[7] = 24 h, single experiment, read-out: IC50 Colo320, parallel experiment 1
[8] = 24 h, single experiment, read-out: IC50 Colo320, parallel experiment 2
[9] = 24 h, single experiment, read-out: IC50 Colo320, parallel experiment 3
[10] = 24 h, single experiment, read-out: IC50 Colo205, parallel experiment 1
[11] = 24 h, single experiment, read-out: IC50 Colo205, parallel experiment 2
[12] = 24 h, single experiment, read-out: IC50 Colo205, parallel experiment 3
[13] = MRC5, 24 h, single experiment, read-out: IC50 MRC-5, parallel experiment 1
[14] = MRC5, 24 h, single experiment, read-out: IC50 MRC-5, parallel experiment 2

## O=C1Oc2ccc3ccccc3c2C1c1c[nH]c2ccccc12 (stereo not shown) [Compound 3, 1-(1H-indol-3-yl)naphtho[2,1-b]furan-2(1H)-one]
[1]; [4]
  IC50: > 100 µM
[2]; [5]
  IC50: > 100 µM
[2]
  Cytotoxic effect on Colo320 cells (in words): no effect
[3]; [6]
  IC50: > 100 µM
[3]
  Cytotoxic effect on Colo205 cells (in words): no effect

## CCOC(=O)C(c1ccc2ccccc2c1O)c1c[nH]c2ccccc12 (stereo not shown) [Compound 7, Ethyl 2-(1-hydroxynaphthalen-2-yl)-2-(1H-indol-3-yl)acetate]
[1]; [4]
  IC50: > 100 µM
[2]; [7]
  IC50: 53.8 µM
[2]; [8]
  IC50: 54.9 µM
[2]; [9]
  IC50: 52.2 µM
[2]; [5]
  IC50: 53.6 ± 1.38 µM
[3]; [6]
  IC50: > 100 µM
[3]
  Cytotoxic effect on Colo205 cells (in words): no effect

## CCOC(=O)C(c1cc(Cl)c2cccnc2c1O)N1CCOCC1 (stereo not shown) [Compound 10, Ethyl 2-(5-chloro-8-hydroxyquinolin-7-yl)-2-morpholinoacetate]
[1]; [4]
  IC50: > 100 µM
[1]
  Cytotoxic effect on normal MRC-5 cells (in words): no toxicity
[2]; [7]
  IC50: 1.56 µM
[2]; [8]
  IC50: 1.81 µM
[2]; [9]
  IC50: 1.79 µM
[2]; [5]
  IC50: 1.72 ± 0.14 µM
[2]
  Selectivity index SI MRC-5/Colo320: >6
[3]; [10]
  IC50: 2.07 µM
[3]; [11]
  IC50: 2.06 µM
[3]; [12]
  IC50: 2.02 µM
[3]; [6]
  IC50: 2.05 ± 0.02 µM
[3]
  Selectivity index SI MRC-5/Colo205: >6

## CCOC(=O)C(c1cc(Cl)c2cccnc2c1O)c1c[nH]c2ccccc12 (stereo not shown) [Compound 11, Ethyl 2-(5-chloro-8-hydroxyquinolin-7-yl)-2-(1H-indol-3-yl)acetate]
[1]; [13]
  IC50: 54.5 µM
[1]; [14]
  IC50: 55.1 µM
[1]; [4]
  IC50: 54.77 ± 0.44 µM
[1]
  Cytotoxic effect on normal MRC-5 cells (in words): mild cytotoxic effect
[2]; [7]
  IC50: 4.64 µM
[2]; [8]
  IC50: 4.83 µM
[2]; [9]
  IC50: 4.96 µM
[2]; [5]
  IC50: 4.81 ± 0.16 µM
[2]
  Selectivity index SI MRC-5/Colo320: 11.4
[3]; [10]
  IC50: 5.51 µM
[3]; [11]
  IC50: 4.71 µM
[3]; [12]
  IC50: 4.42 µM
[3]; [6]
  IC50: 4.88 ± 0.56 µM
[3]
  Selectivity index SI MRC-5/Colo205: 11.2

## CCOC(=O)C(c1cc(Cl)c2cccnc2c1O)c1c[nH]c2ncccc12 (stereo not shown) [Compound 12, Ethyl 2-(5-chloro-8-hydroxyquinolin-7-yl)-2-(7-azaindole-3-yl)acetate]
[1]; [13]
  IC50: 46.9 µM
[1]; [14]
  IC50: 45.6 µM
[1]; [4]
  IC50: 46.2 ± 0.95 µM
[1]
  Cytotoxic effect on normal MRC-5 cells (in words): mild cytotoxic effect
[2]; [7]
  IC50: 5.16 µM
[2]; [8]
  IC50: 4.92 µM
[2]; [9]
  IC50: 5.11 µM
[2]; [5]
  IC50: 5.06 ± 0.12 µM
[2]
  Selectivity index SI MRC-5/Colo320: 9.1
[3]; [10]
  IC50: 8.05 µM
[3]; [11]
  IC50: 7.42 µM
[3]; [12]
  IC50: 8.84 µM
[3]; [6]
  IC50: 8.11 ± 0.71 µM
[3]
  Selectivity index SI MRC-5/Colo205: 5.7

## Oc1c(C(c2ccccc2)c2c[nH]c3ccccc23)cc(Cl)c2cccnc12 (stereo not shown) [Compound 14, 7-((1H-indol-3-yl)(phenyl)methyl)-5-chloroquinolin-8-ol]
[1]; [13]
  IC50: 30.1 µM
[1]; [14]
  IC50: 29.3 µM
[1]; [4]
  IC50: 29.7 ± 0.57 µM
[1]
  Cytotoxic effect on normal MRC-5 cells (in words): mild cytotoxic effect
[2]; [7]
  IC50: 2.55 µM
[2]; [8]
  IC50: 2.84 µM
[2]; [9]
  IC50: 2.78 µM
[2]; [5]
  IC50: 2.72 ± 0.15 µM
[2]
  Selectivity index SI MRC-5/Colo320: 11
[3]; [10]
  IC50: 2.49 µM
[3]; [11]
  IC50: 2.49 µM
[3]; [12]
  IC50: 2.63 µM
[3]; [6]
  IC50: 2.53 ± 0.08 µM
[3]
  Selectivity index SI MRC-5/Colo205: 11.7

## Oc1c(Cc2c[nH]c3ccccc23)cc(Cl)c2cccnc12 [Compound 16, 7-((1H-indol-3-yl)methyl)-5-chloroquinolin-8-ol]
[1]; [4]
  IC50: > 100 µM
[1]
  Cytotoxic effect on normal MRC-5 cells (in words): no toxicity
[2]; [7]
  IC50: 4.97 µM
[2]; [8]
  IC50: 4.74 µM
[2]; [9]
  IC50: 4.91 µM
[2]; [5]
  IC50: 4.87 ± 0.12 µM
[2]
  Cytotoxic effect on Colo320 cells (in words): potent toxic activity
  Selectivity index SI MRC-5/Colo320: >6
[3]; [10]
  IC50: 13.6 µM
[3]; [11]
  IC50: 13.4 µM
[3]; [12]
  IC50: 12.3 µM
[3]; [6]
  IC50: 13.1 ± 0.7 µM
[3]
  Selectivity index SI MRC-5/Colo205: >6

## Oc1c(Cc2c[nH]c3ncccc23)cc(Cl)c2cccnc12 [Compound 17, 7-((7-azaindole-3-yl)methyl)-5-chloroquinolin-8-ol]
[1]; [4]
  IC50: > 100 µM
[2]; [7]
  IC50: 23 µM
[2]; [8]
  IC50: 21.9 µM
[2]; [9]
  IC50: 22.5 µM
[2]; [5]
  IC50: 22.5 ± 0.55 µM
[3]; [10]
  IC50: 36.5 µM
[3]; [11]
  IC50: 39.4 µM
[3]; [12]
  IC50: 40.4 µM
[3]; [6]
  IC50: 38.8 ± 2.03 µM

## COc1cccc2c1C(=O)c1c(O)c3c(c(O)c1C2=O)C[C@@](O)(C(=O)CO)C[C@@H]3O[C@H]1C[C@H](N)[C@H](O)[C@H](C)O1 [DOX, Doxorubicin, reference compound]
[1]; [4]
  IC50: > 8.62 µM
[2]; [7]
  IC50: 3.12 µM
[2]; [8]
  IC50: 3.12 µM
[2]; [9]
  IC50: 2.96 µM
[2]; [5]
  IC50: 3.07 ± 0.09 µM
[3]; [10]
  IC50: 0.84 µM
[3]; [11]
  IC50: 0.89 µM
[3]; [12]
  IC50: 0.81 µM
[3]; [6]
  IC50: 0.85 ± 0.04 µM
